Data set [1] has as its system Beet Armyworm (BAW) (Spodoptera exigua). Kind of data set: Bioassay on beet armyworm (BAW), 128-well diet tray assay, percent mortality. In kind it is in vivo. Particulars: Spodoptera exigua, 50 μg/cm^2. How it is done:
(§1) Certain molecules disclosed in this document were tested against BAW and CEW using procedures described in the following examples. In the reporting of the results, the “BAW & CEW Rating Table” was used (See Table Section).
Bioassays on BAW (Spodoptera exigua)
Bioassays on BAW were conducted using a 128-well diet tray assay. One to five second instar BAW larvae were placed in each well (3 mL) of the diet tray that had been previously filled with 1 mL of artificial diet to which 50 μg/cm^2 of the test compound (dissolved in 50 μL of 90:10 acetone-water mixture) had been applied (to each of eight wells) and then allowed to dry. Trays were covered with a clear self-adhesive cover and held at 25° C., 14:10 light-dark for five to seven days. Percent mortality was recorded for the larvae in each well; activity in the eight wells was then averaged. The results are indicated in the table entitled “Table 5: Biological Results” (See Table Section).

The subject of data set [2] is Green Peach Aphid (GPA) (Myzus persicae). As to the kind of experiment: Bioassay on green peach aphid (GPA), foliar spray on cabbage seedlings, corrected % control. It is filed as in vivo. Particulars: 72 h, read-out: % Mortality GPA 200 ppm. As to the method:
Certain molecules disclosed in this document were tested against GPA using procedures described in the following example. In the reporting of the results, the “GPA Rating Table” was used (See Table Section).
Cabbage seedlings grown in 3-inch pots, with 2-3 small (3-5 cm) true leaves, were used as test substrate. The seedlings were infested with 20-50 GPA (wingless adult and nymph stages) one day prior to chemical application. Four pots with individual seedlings were used for each treatment. Test compounds (2 mg) were dissolved in 2 mL of acetone/methanol (1:1) solvent, forming stock solutions of 1000 ppm test compound. […] A hand-held aspirator-type sprayer was used for spraying a solution to both sides of […] leaves until runoff. Reference plants (solvent check) were sprayed with the diluent only containing 20% by volume of acetone/methanol (1:1) solvent. Treated plants were held in a holding room for three days at approximately 25° C. and ambient relative humidity (RH) prior to grading. Evaluation was conducted by counting the number of live aphids per plant under a microscope.
Corrected % Control=100*(X−Y)/X • where • X=No. of live aphids on solvent check plants and • Y=No. of live aphids on treated plants
The results are indicated in the table entitled “Table 5: Biological Results” (See Table Section).

Data set [3] relates to Corn Earworm (CEW) (Helicoverpa zea). As to the kind of experiment: Bioassay on corn earworm (CEW), 128-well diet tray assay, percent mortality. Particulars: Helicoverpa zea, 50 μg/cm^2. It is filed as in vivo. How it is done:
as §1
Bioassays on CEW (Helicoverpa zea)
Bioassays on CEW were conducted using a 128-well diet tray assay. One to five second instar CEW larvae were placed in each well (3 mL) of the diet tray that had been previously filled with 1 mL of artificial diet to which 50 μg/cm^2 of the test compound (dissolved in 50 μL of 90:10 acetone-water mixture) had been applied (to each of eight wells) and then allowed to dry. Trays were covered with a clear self-adhesive cover and held at 25° C., 14:10 light-dark for five to seven days. Percent mortality was recorded for the larvae in each well; activity in the eight wells was then averaged. The results are indicated in the table entitled “Table 5: Biological Results” (See Table Section).

Consider `Cc1ccc(C(C)C)c(NC(=S)NN)c1` [Compound I-46], for which the melting point (as a rule, the temperature, or range, at which the solid turns liquid) is 167 to 169 °C.

As to `CCC(C)c1ccccc1N1/C(=N/N=C/c2ccc(-c3ncn(-c4ccc(OC(F)(F)F)cc4)n3)cc2)SCC1(C)O` (stereo not drawn) [Compound 243C], the pest or weed control at 50 µg/cm2, 50 µg/cm2 in data set [1] and in data set [3] was 50 to 100% throughout. Also, the pest or weed control at 200 ppm in data set [2] lay within 0 to 80%.

Compound `FC(F)(F)Oc1ccc(-n2cnc(-c3ccc(/C=N/NC(=S)Nc4ccccc4C4CCCC4)cc3)n2)cc1` [Compound I-35] yielded a melting point of 213 to 216 °C.

With `CCc1cccc(C)c1N1CCCS/C1=N\N=C\c1ccc(-c2ncn(-c3ccc(OC(F)(F)F)cc3)n2)cc1` [Compound 180C], the pest or weed control at 50 µg/cm2, 50 µg/cm2 in data set [1] and in data set [3] was 50 to 100% throughout. The pest or weed control at 200 ppm in data set [2] fell in the range of 0 to 80%.

Consider `CC(C)c1cc(F)c(F)cc1NC(=S)N/N=C/c1ccc(-c2ncn(-c3ccc(OC(F)(F)F)cc3)n2)cc1` [Compound I-55], for which the melting point was 217 to 221 °C.

On to `CC(C)c1ccccc1N1/C(=N/N=C/c2ccc(-c3ncn(-c4ccc(OC(F)(F)C(F)(F)F)cc4)n3)cc2)SCC1(C)O` (stereo not drawn) [Compound 262C], for which the pest or weed control at 50 µg/cm2, 50 µg/cm2 in data set [1] and in data set [3] was 50 to 100% throughout. Besides, in data set [2], the pest or weed control at 200 ppm lay within 0 to 80%.

`CC(C)c1cc(F)ccc1NC(=S)NN` [Compound I-50] returned a melting point of 163 to 167 °C.

`CCc1ccccc1N1/C(=N/N=C/c2ccc(-c3ncn(-c4ccc(OC(F)(F)F)cc4)n3)cc2)SCC1(C)O` (stereo not drawn) [Compound 254C]: the pest or weed control at 50 µg/cm2, 50 µg/cm2 in data set [1] and in data set [3] was 50 to 100% in each case. In addition, the pest or weed control at 200 ppm in data set [2] fell in the range of 0 to 80%.

`Cc1cccc(NC(=S)N/N=C/c2ccc(-c3ncn(-c4ccc(OC(F)(F)F)cc4)n3)cc2)c1C(C)C` [Compound I-43] gave a melting point of 219 to 222 °C.

`CC(C)c1cc(F)c(F)cc1NC(=S)NN` [Compound I-54] displayed a melting point of 169 to 170 °C.

For the compound `COc1ccc(N2/C(=N/N=C/c3ccc(-c4ncn(-c5ccc(OC(F)(F)F)cc5)n4)cc3)SCC2(C)O)c(C)c1` (stereo not drawn) [Compound 245C], the pest or weed control at 50 µg/cm2, 50 µg/cm2 in data set [1] and in data set [3] was 50 to 100% throughout. Further, in data set [2], the pest or weed control at 200 ppm lay in the range of 0 to 80%.

As for `Cc1cc(C)c(N2C(=O)CS/C2=N\N=C\c2ccc(-c3ncn(-c4ccc(OC(F)(F)F)cc4)n3)cc2)c(C)c1` [Compound 72C], the pest or weed control at 50 µg/cm2, 50 µg/cm2 in data set [1] and in data set [3] was 50 to 100% throughout. In addition, the pest or weed control at 200 ppm in data set [2] is 0 to 80%.

`CC(C)c1ccccc1N1/C(=N/N=C/c2ccc(-c3ncn(-c4ccc(OC(F)(F)F)cc4)n3)cc2)SCC1(C)O` (stereo not drawn) [Compound 242C]: the pest or weed control at 50 µg/cm2, 50 µg/cm2 in data set [1] and in data set [3] was 50 to 100% each time. Also, the pest or weed control at 200 ppm in data set [2] lay in the range of 0 to 80%.

As for `CCCc1ccccc1N1/C(=N/N=C/c2ccc(-c3ncn(-c4ccc(OC(F)(F)F)cc4)n3)cc2)SCC1(C)O` (stereo not drawn) [Compound 256C], the pest or weed control at 50 µg/cm2, 50 µg/cm2 in data set [1] and in data set [3] was 50 to 100% in each case. Also, the pest or weed control at 200 ppm in data set [2] was 0 to 80%.

On to `Cc1ccccc1N1/C(=N/N=C/c2ccc(-c3ncn(-c4ccc(OC(F)(F)F)cc4)n3)cc2)SCC1(C)O` (stereo not drawn) [Compound 248C], for which the pest or weed control at 50 µg/cm2, 50 µg/cm2 in data set [1] and in data set [3] was 50 to 100% each time. Further, the pest or weed control at 200 ppm in data set [2] fell in the range of 0 to 80%.
